From patent publication US8987246B2, “Methods for treatment of autism spectrum disorder” (The Johns Hopkins University, priority 2012, dated 2015)

What was measured:
individuals with SLOS = conditions: cited from earlier work
[1] = tested on: subjects with Smith-Lemli-Opitz Syndrome; experiment: Retrospective analysis of rate of change in current state ADI scores before and after cholesterol supplementation; assay type: in vivo, human; conditions: for Cholesterol effect (regression coefficient) on average change in ADI Nonverbal score per year / Cholesterol effect (regression coefficient) on average change in ADI Repetitive score per year / Cholesterol effect (regression coefficient) on average change in ADI Social score per year / Cholesterol effect (regression coefficient) on average change in ADI Verbal score per year: negative = improvement
Procedure: Cholesterol Supplementation Improved Behavioral Symptoms and May Improve ASD Features in SLOS. The Autism Diagnostic Interview was conducted with 6 SLOS individuals, and data was obtained for 3 “current state” time-points: age 4-5, just before starting cholesterol supplementation, and present while on cholesterol. The change in the score of three ADI algorithm domains—Social, Communication, and Restricted, Repetitive, and Stereotyped Behavior—was estimated. Because the time between visits varied from subject to subject, a model was developed to control for age and time lapse between tests. A detailed description of the model and outcomes is included in Example 1. In summary, on the Social domain, the individuals on cholesterol supplementation improved by an average of 7.07 points more than children not on supplementation (p value 0.008). The ADI Communication domain has a non-verbal score that is completed for all individuals and a verbal score that is completed in those individuals who have phrase speech. The value for the non-verbal score is within the verbal total score. In the non-verbal children, the language domain score improved 2.51, p value 0.04. […] In the Repetitive domain, the children worsened an average of 1.54 points (p value<0.001) (Example 1).
The variables listed in the analysis of the primary outcomes are below. i=1, . . . , 6 children, j=2, 3 visits • socialchij=average change in social measure per year for child i between age at visit j and age at visit j−1. (More specifically, socialchij is social score at visit j minus social score at visit j−1, divided by the number of years between visits j and j−1.) • verbalchij=average change in verbal measure per year for child i between age at visit j and age at visit j−1. • nonverbalchij=average change in nonverbalchij measure per year for child i between age at visit j and age at visit j−1. • repetchij=average change in repetitive measure per year for child i between age at visit j and age at visit j−1.
ageij=age of child i at visit j at which measure was performed
agedifij=number of years between visit j and visit j−1
agecholij=age at which cholesterol supplementation began for child i
cholij=1 if cholesterol supplementation has occurred at prior to visit j for child i.
Note that the large improvements are consistent with large negative values. In other words, if a child has a large improvement in social score between visits j−1 and j, this will be reflected as a large negative value for socialchij.
So, the idea is to model the average change in scores before and after supplementation, adjusting for age, the number of years between visits, and the age at which supplementation occurred. To do this, our linear model for “social” is socialchij=β0i+[…]+β2agedifij+β3agecholij+β4cholij+eij
We use a linear regression model that allows for correlation between observations from the same individual. Using this model, we estimate the […] parameters in the model, which measure the direction and magnitude of the association between social score change and each of the covariates (i.e., age, age difference, age at cholesterol, and cholesterol). The same model was fit for each of the four outcomes. The table below gives the estimated coefficients for each of the 4 primary outcome variables.

[2] = 6 SLOS children, model with age, age difference, age at cholesterol, cholesterol
[3] = model leaving out age at cholesterol
[4] = model leaving out age difference from last visit

CC(C)CCC[C@@H](C)[C@H]1CC[C@H]2[C@@H]3CC=C4C[C@@H](O)CC[C@]4(C)[C@H]3CC[C@]12C [Cholesterol, cholesterol]
Developmental status over time with cholesterol supplementation (individuals with SLOS; SLOS, one group): did not improve
Growth, speech articulation and neurodevelopmental status with cholesterol supplementation (individuals with SLOS; SLOS, some reports): improves
Irritability, sleep disturbance and obsessive compulsive behavior with cholesterol supplementation (individuals with SLOS; individuals with SLOS): improve with cholesterol supplementation
Cholesterol effect (regression coefficient) on average change in ADI Nonverbal score per year [1, 2]: −2.51
Cholesterol effect (regression coefficient) on average change in ADI Repetitive score per year [1, 2]: 1.54
Cholesterol effect (regression coefficient) on average change in ADI Social score per year [1, 2]: −7.07
Cholesterol effect (regression coefficient) on average change in ADI Verbal score per year [1, 2]: −6.97
ADI Repetitive domain: average worsening ([1]; SLOS children on cholesterol supplementation, p value<0.001): 1.54 points
ADI Social domain: average improvement more than children not on supplementation ([1]; SLOS individuals on cholesterol supplementation, p value 0.008): 7.07 points
Association of cholesterol supplementation with social, verbal and non-verbal scores (correlation matrix, FIG. 1) ([1]; children who have already begun supplementation, not accounting for age or other factors): scores tend to be lower on average
Social and communication abilities with cholesterol supplementation ([1]; in SLOS): improvement was found
Cholesterol effect (regression coefficient) on average change in ADI Nonverbal score per year [1, 3]: −2.56
Cholesterol effect (regression coefficient) on average change in ADI Repetitive score per year [1, 3]: 1.23
Cholesterol effect (regression coefficient) on average change in ADI Social score per year [1, 3]: −5.14
Cholesterol effect (regression coefficient) on average change in ADI Verbal score per year [1, 3]: −6.77
Cholesterol effect (regression coefficient) on average change in ADI Nonverbal score per year [1, 4]: −2.05
Cholesterol effect (regression coefficient) on average change in ADI Repetitive score per year [1, 4]: 1.45
Cholesterol effect (regression coefficient) on average change in ADI Social score per year [1, 4]: −6.97
Cholesterol effect (regression coefficient) on average change in ADI Verbal score per year [1, 4]: −4.14
ADI language domain (non-verbal) score improvement ([1]; non-verbal SLOS children on cholesterol supplementation, p value 0.04): 2.51
ADI verbal score average change (given as increase) ([1]; verbal SLOS children on cholesterol supplementation, p value<0.001): 6.97 points
